{"source": "paper PMC6915745", "about": "“TRIB3 supports breast cancer stemness by suppressing FOXO1 degradation and enhancing SOX2 transcription” (Nature Communications, 2019)", "key": {"[1]": {"tested_on": "MCF7 cells", "assay": "Mammosphere (tumorsphere) formation, MCF7 cells", "format": "cell-based, human", "conditions": "one week of IL-6, serum-free spheroid suspension culture"}, "[2]": {"tested_on": "TRIB3", "assay": "TRIB3 expression after cytokines or stressors, MCF7 cells (WB)", "format": "cell-based, human", "experimental": "(§1) Cycloheximide (CHX; Sigma Aldrich, R750107) was used as a protein synthesis inhibitor to assess the stability of the existing proteins. To assess protein stability, cells were treated with 20 μM CHX and the proteasome inhibitor MG132 (Sigma Aldrich, R750107) at 10 μM or the autophagy inhibitor BAF (Sigma Aldrich, B1793) at 200 nM for the indicated times. Protein expression was assessed via immunoblot analysis with cell lysates (20–60 μg) prepared in RIPA lysis buffer containing protease inhibitors (Roche) using anti-SOX2 (3529), anti-NANOG (4903), anti-OCT4 (2750), anti-KLF4 (4038), anti-c-Myc (13987), anti-FOXO1 (2880), anti-p-FOXO1 (9461), anti-AKT (4685), anti-p-AKT (4060), anti-β-ACTIN (4970), anti-Ubiquitin (3936), or anti-LaminA/C (4777) antibodies from CST; anti-TRIB3 antibody (ab75846) from Abcam; and anti-Trib3 antibody (PA5-15480) from Thermo Fisher Scientific[59]. All antibodies were used at 1:1000 dilution, with the exception of anti-β-Actin antibodies, which were used at 1:2000 dilution. The protein concentrations were determined by BCA Protein Assay Kits (Pierce). Proteins were separated by SDS-polyacrylamide gel electrophoresis (PAGE) and transferred to polyvinylidene difluoride membrane. […]\n(f, g) The expression of\nTRIB3 in MCF7 cells (top) or MDA-MB-231 cells (bottom) treated with various concentrations of IL6 for\n8 hr (f) or 10 ng/ml IL-6 for different amounts of time (g) was detected by WB. (h) Silencing TRIB3\ndecreased the tumor sphere formation ability of MCF7 cells with or without IL-6 stimulation. […]\nData are shown as the mean ± SEM; P>0.05 was considered not significant (N.S.); *P<0.05, **P<0.01\nand ***P<0.001, compared with the con group in panels d-f. Source data are provided as a Source Data"}, "[3]": {"tested_on": "TRIB3", "assay": "TRIB3 expression after IL-6, MDA-MB-231 cells (WB)", "format": "cell-based", "conditions": "various IL-6 concentrations 8 hr, or 10 ng/ml IL-6 for different times", "experimental": "as §1, with “All antibodies were used at 1:1000 dilution, with the exception of anti-β-Actin antibodies, which were used at 1:2000 dilution.” left out, “(Pierce).” for “(Pierce). Proteins were separated by SDS-polyacrylamide gel electrophoresis (PAGE) and transferred to polyvinylidene difluoride membrane.”\n(GSE12790). Relative amounts of TRIB3 transcripts were measured using the 205805_s_at probe. […]\nlevels of TRIB3 mRNA. Metastasis-free survival was determined by Kaplan–Meier analyses, and\nsignificant differences were determined by log-rank tests. […]\n24 hr, glucose deprivation (DG) for 12 hr, and high glucose (HG) for 24 hr was detected by Western […]\n8 hr (f) or 10 ng/ml IL-6 for different amounts of time (g) was detected by WB. […]"}, "[4]": {"tested_on": "MCF7 cells", "assay": "TRIB3/AKT/FOXO1/SOX2 axis after IL-6, CoCl2 or high glucose, MCF7 cells (WB)", "format": "cell-based, human", "conditions": "MCF7 cells, IL-6 12 hr, high glucose 24 hr, WB"}, "[5]": {"tested_on": "TRIB3", "assay": "Relative TRIB3 mRNA in control or FOXO1-silenced MCF7 cells after stressors", "format": "cell-based, human", "conditions": "FOXO1-shRNA MCF7 cells, in words"}}, "note": "Entries after “also recorded” stand apart in the source; their conditions may differ."}
{"substance": "IL-6: cytokine interleukin (IL)-6", "values": [{"measurement": "tumorsphere-formation ability", "setting": "[1]", "value": "increased the tumorsphere-formation ability"}, {"measurement": "TRIB3 expression", "setting": "[2]; cytokines 8 hr, high glucose 24 hr", "value": "enhanced TRIB3 expression in MCF7 cells"}, {"measurement": "TRIB3 expression, dose- and time-dependence", "setting": "[2]; various IL-6 concentrations 8 hr, or 10 ng/ml IL-6 for different times", "value": "enhanced TRIB3 expression in MCF7 and MDA-MB-231 cells in dose-"}, {"measurement": "TRIB3 expression, dose- and time-dependence", "setting": "[3]", "value": "enhanced TRIB3 expression in MCF7 and MDA-MB-231 cells in dose-"}, {"measurement": "expressions of FOXO1 and SOX2", "setting": "[4]; CoCl2 24 hr", "value": "enhance; also recorded: enhanced expressions of FOXO1 and SOX2"}, {"measurement": "activity of FOXO1 S256", "setting": "[4]", "value": "reduced the activity of FOXO1^S256"}, {"measurement": "TRIB3 expression in FOXO1-silenced BCCs", "setting": "[5]", "value": "could enhance TRIB3 expression in FOXO1-silenced BCCs"}]}
